Where two headings read alike, the source gives them in different places.
Tests used:
[1] = log P by reversed-phase HPLC (EEC Directive 79/831 Annex V.A8); assay type: physicochemical; settings: for chromatographic logP: reversed-phase C18 HPLC column
Text: NMR data and log P values: log P (HCOOH)=log P[a] log P (neutral)=log P[b]
^[a] […] Called log P (HCOOH) in the table.
^[b] […] Called log P (neutral) in the table.

Tetranychus urticae = Tetranychus urticae spray test, OP-resistant (TETRUR); assay type: in vivo; settings: 500 g/ha, bean leaf discs, after 6 days
Method: Tetranychus urticae—spray test, OP-resistant (TETRUR)
• Solvent: 78.0 parts by weight of acetone • 1.5 parts by weight of dimethylformamide • Emulsifier: 0.5 part by weight of alkylaryl polyglycol ether
After 6 days, the efficacy in % is determined. 100% means that all the spider mites have been killed; 0% means that no spider mites have been killed.

Myzus persicae = Myzus persicae spray test (MYZUPE); assay type: in vivo; settings: Chinese cabbage leaf discs, after 6 days
Method: Myzus persicae—spray test (MYZUPE)
• Solvent: 78 parts by weight of acetone • 1.5 parts by weight of dimethylformamide • Emulsifier: 0.5 part by weight of alkylaryl polyglycol ether
After 6 days, the efficacy in % is determined. 100% means that all the aphids have been killed; 0% means that no aphids have been killed.

Aphis gossypii = Aphis gossypii spray test; assay type: in vivo; settings: 100 ppm, cotton plants, after 6 days
Method: Aphis gossypii—spray test
• Solvent: 7 parts by weight of dimethylformamide • Emulsifier: alkylaryl polyglycol ether
To produce further test concentrations, the preparation is diluted with emulsifier-containing water. If the addition of ammonium salts or/and penetrants is required, these are each added in a concentration of 1000 ppm to the formulation solution.
After 6 days, the kill in % is determined. 100% means that all the aphids have been killed; 0% means that no aphids have been killed.

[2] = acidic range, pH 2.7, 0.1% aqueous formic acid/acetonitrile
[3] = acidic range, pH 2.7, 0.1% aqueous formic acid/acetonitrile, read-out: logP [a] = log P (HCOOH)
[4] = neutral range, pH 7.8, aqueous ammonium hydrogencarbonate/acetonitrile

| SMILES | logP [a] = log P (HCOOH) ([1]; pH 2.7) | logP [a] = log P (HCOOH) [1, 2] | also measured |
| --- | --- | --- | --- |
| Cc1nc2cc(C(F)(F)F)ccc2nc1-c1cccnc1 [Example I-60] | – | 2.39 | – |
| Cc1cnccc1-c1nc2cc(C(F)(F)F)ccc2nc1-c1ccc(Cl)cc1 [Example I-68] | – | 3.94 | – |
| Clc1ccc2nc(-c3ccnc(Cl)c3)cnc2c1 [Example I-69] | – | 3.52 | – |
| Cc1cnccc1-c1nc2ccc(C(F)(F)F)cc2nc1Cl [Example I-37] | 2.94 | – | – |
| Cc1cnccc1-c1nc2cc(C(F)(F)F)ccc2nc1Cl [Example I-38] | 2.88 | – | – |
| O=c1[nH]c2cc3c(cc2nc1-c1ccc(Cl)cc1)OC(F)(F)O3 [VIb-01, 7-(4-chlorophenyl)-2,2-difluoro [1,3]dioxolo [4,5-g]quinoxalin-6(5H)-one] | – | – | chromatographic logP [1, 3]: 2.96 |
| Cc1cnccc1-c1cnc2cc(C#N)ccc2n1 [Example I-56] | 1.17 | – | logP [b] = log P (neutral) ([1]; pH 7.8): 1.81 |
| FC(F)(F)c1ccc2nc(-c3ccc(Cl)cc3)cnc2c1 [Example I-25] | – | 4.99 | efficacy (spider mites killed) (Tetranychus urticae): 90% |
| N#Cc1ccc2nc(-c3ccncc3)cnc2c1 [Example I-61] | – | 1.19 | – |
| Cc1cnccc1-c1nc2ccc(C(F)(F)F)cc2nc1C [Example I-66] | – | 2.15 | efficacy (spider mites killed) (Tetranychus urticae): 90%; efficacy (aphids killed) (Myzus persicae; 500 g/ha): 90%; efficacy (kill of aphids) (Aphis gossypii): 95% |
| CCSc1ccccc1-c1nc2cc3c(cc2nc1-c1ccc(Cl)cc1)OC(F)(F)O3 [Example I-59] | – | 6.23 | – |
| Cn1nccc1-c1cnc2cc(C(F)(F)F)ccc2n1 [Example I-49] | – | 3.07 | logP [b] = log P (neutral) [1, 4]: 3.05 |
| FC(F)(F)c1ccc2nc(-c3ccccn3)cnc2c1 [Example I-18] | – | 3.72 | logP [b] = log P (neutral) [1, 4]: 3.75; efficacy (spider mites killed) (Tetranychus urticae): 90%; efficacy (aphids killed) (Myzus persicae; 500 g/ha): 90% |
| Cc1cnccc1-c1nc2ccc(C(F)(F)F)cc2nc1-c1ccc(Cl)cc1 [Example I-64] | – | 4.03 | – |
| O=c1cnc2cc3c(cc2[nH]1)OC(F)(F)O3 [VIa-03, 2,2-difluoro[1,3]dioxolo[4,5-g]quinoxalin-6(5H)-one] | – | – | chromatographic logP [1, 3]: 1.49; chromatographic logP ([1]; neutral range, pH 7.8, aqueous ammonium hydrogencarbonate/acetonitrile, read-out: logP [b] = log P (neutral)): 1.33 |
| FC1(F)Oc2cc3ncc(-c4ccc(C(F)(F)F)cc4)nc3cc2O1 [Example I-5, 2,2-Difluoro-6-[4-(trifluoromethyl)phenyl][1,3]dioxolo [4,5-g]quinoxaline] | – | – | chromatographic logP [1, 3]: 5.02 |
| [O-][n+]1cc(-c2ccc(C(F)(F)F)cc2)nc2cc3c(cc21)OC(F)(F)O3 [Example I-6, 2,2-Difluoro-7-[4-(trifluoromethyl)phenyl][1,3]dioxolo [4,5-g]quinoxaline 5-oxide] | – | – | chromatographic logP [1, 3]: 4.12 |

Second part, led by results:

| logP [a] = log P (HCOOH) ([1]; pH 2.7) | SMILES | logP [a] = log P (HCOOH) [1, 2] | also measured |
| --- | --- | --- | --- |
| 2.33 | FC(F)(F)c1ccc2nc(-c3cncnc3)cnc2c1 [Example I-12] | – | efficacy (spider mites killed) (Tetranychus urticae): 90% |
| 2.99 | Clc1ccc2nc(-c3ccncc3Cl)cnc2c1 [Example I-39] | – | – |
| 3.78 | Clc1cc2ncc(-c3ccncc3Cl)nc2cc1Cl [Example I-71] | – | – |
| 2.60 | COc1cnccc1-c1cnc2ccc(C(F)(F)F)cc2n1 [Example I-62] | – | efficacy (aphids killed) (Myzus persicae; 100 g/ha): 90%; efficacy (kill of aphids) (Aphis gossypii): 97% |
| 4.45 | CSc1ccccc1-c1cnc2cc(C(F)(F)F)ccc2n1 [Example I-16] | – | logP [b] = log P (neutral) ([1]; pH 7.8): 4.31 |
| 3.60 | CCSc1ccccc1-c1cnc2cc(C#N)ccc2n1 [Example I-57] | – | logP [b] = log P (neutral) ([1]; pH 7.8): 3.55 |
| 3.24 | FC1(F)Oc2cc3ncc(-c4ccncc4Cl)nc3cc2O1 [Example I-72] | – | – |
| 4.57 | Cc1cscc1-c1cnc2ccc(C(F)(F)F)cc2n1 [Example I-44] | – | – |
| 4.59 | CCOc1ncccc1-c1cnc2cc(C(F)(F)F)ccc2n1 [Example I-24] | – | efficacy (spider mites killed) (Tetranychus urticae): 100% |
| 4.67 | Cc1ccsc1-c1cnc2cc(C(F)(F)F)ccc2n1 [Example I-48] | – | efficacy (spider mites killed) (Tetranychus urticae): 90% |
| 4.17 | FC(F)(F)c1ccccc1-c1cnc2cc(Cl)ccc2n1 [Example I-21] | – | efficacy (spider mites killed) (Tetranychus urticae): 100% |
| 2.72 | Fc1cc2ncc(-c3ccncc3Cl)nc2cc1F [Example I-70] | – | – |
| 2.52 | CS(=O)(=O)c1ccccc1-c1cnc2cc(Cl)ccc2n1 [Example I-28] | – | logP [b] = log P (neutral) ([1]; pH 7.8): 2.52 |

— patent publication US9936700B2, “Substituted quinoxaline derivatives as pest control agent” (BAYER CROPSCIENCE AKTIENGESELLSCHAFT, priority 2013, dated 2018)
